Data: patent US12171752B2, “Methods of treating post-COVID condition(s)” (priority 2022, dated 2024)

Tests used:
[1] = tested on: TNFα; experiment: Spike protein-mediated TNFα release from human monocyte-derived microglia (iMDM); format: cell-based; details: for Dose dependence of TNFα reduction: ibudilast 1, 10 or 100 μM
[2] = tested on: IL-6; experiment: Spike protein-mediated IL-6 release from human monocyte-derived microglia (iMDM); format: cell-based
[3] = tested on: MIF; experiment: Plasma level of MIF; details: found by the inventors
[4] = molecular target: T1, macrophage inhibitory factor (MIF) (Homo sapiens, UniProt P14174); details: Cho et al., PNAS-USA 2010; cited from earlier work
T1 sequence (P14174 2-115 limits assumed): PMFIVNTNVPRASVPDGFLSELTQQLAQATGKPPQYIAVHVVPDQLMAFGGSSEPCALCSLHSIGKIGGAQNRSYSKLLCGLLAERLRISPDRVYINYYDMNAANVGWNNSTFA

[5] = molecular target: PDE 3A (Homo sapiens, UniProt Q14432); details: Gibson et al., Eur J Pharmacol 2006; cited from earlier work
Sequence of PDE 3A (Q14432 whole entry): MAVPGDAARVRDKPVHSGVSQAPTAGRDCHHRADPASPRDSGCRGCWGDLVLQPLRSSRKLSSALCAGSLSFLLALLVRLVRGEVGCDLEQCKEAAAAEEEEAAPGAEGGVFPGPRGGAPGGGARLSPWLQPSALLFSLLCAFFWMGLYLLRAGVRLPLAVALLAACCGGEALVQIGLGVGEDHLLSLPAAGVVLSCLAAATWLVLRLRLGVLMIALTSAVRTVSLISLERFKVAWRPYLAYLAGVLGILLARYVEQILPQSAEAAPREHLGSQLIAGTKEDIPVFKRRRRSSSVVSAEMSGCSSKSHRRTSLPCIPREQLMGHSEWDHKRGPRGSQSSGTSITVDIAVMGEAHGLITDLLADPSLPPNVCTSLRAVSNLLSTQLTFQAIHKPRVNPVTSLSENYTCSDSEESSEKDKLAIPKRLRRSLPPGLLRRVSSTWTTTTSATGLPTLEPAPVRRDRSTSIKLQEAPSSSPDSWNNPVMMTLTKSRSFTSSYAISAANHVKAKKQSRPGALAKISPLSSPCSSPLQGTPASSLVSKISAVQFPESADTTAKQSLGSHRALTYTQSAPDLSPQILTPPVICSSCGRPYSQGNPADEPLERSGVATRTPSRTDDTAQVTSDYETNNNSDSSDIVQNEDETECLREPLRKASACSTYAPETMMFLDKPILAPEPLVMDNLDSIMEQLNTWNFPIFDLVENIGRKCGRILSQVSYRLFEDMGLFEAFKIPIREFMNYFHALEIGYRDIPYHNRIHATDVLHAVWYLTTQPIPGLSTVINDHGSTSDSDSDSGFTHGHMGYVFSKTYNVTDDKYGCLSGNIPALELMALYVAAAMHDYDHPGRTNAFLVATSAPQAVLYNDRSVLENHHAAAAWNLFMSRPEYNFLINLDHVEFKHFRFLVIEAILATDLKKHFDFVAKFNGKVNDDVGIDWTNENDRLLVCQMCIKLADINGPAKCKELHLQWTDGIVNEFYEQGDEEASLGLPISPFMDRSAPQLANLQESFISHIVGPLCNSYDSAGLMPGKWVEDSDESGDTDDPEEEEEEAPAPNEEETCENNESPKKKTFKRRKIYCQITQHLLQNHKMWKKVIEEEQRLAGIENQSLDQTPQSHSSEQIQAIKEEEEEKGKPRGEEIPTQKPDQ

[6] = tested on: PDE 4; details: Gibson et al., Eur J Pharmacol 2006; cited from earlier work
[7] = molecular target: PDE 10A1 (Homo sapiens, UniProt Q9Y233); details: Gibson et al., Eur J Pharmacol 2006; cited from earlier work
Sequence of PDE 10A1 (Q9Y233 1-779 isoform Q9Y233-1): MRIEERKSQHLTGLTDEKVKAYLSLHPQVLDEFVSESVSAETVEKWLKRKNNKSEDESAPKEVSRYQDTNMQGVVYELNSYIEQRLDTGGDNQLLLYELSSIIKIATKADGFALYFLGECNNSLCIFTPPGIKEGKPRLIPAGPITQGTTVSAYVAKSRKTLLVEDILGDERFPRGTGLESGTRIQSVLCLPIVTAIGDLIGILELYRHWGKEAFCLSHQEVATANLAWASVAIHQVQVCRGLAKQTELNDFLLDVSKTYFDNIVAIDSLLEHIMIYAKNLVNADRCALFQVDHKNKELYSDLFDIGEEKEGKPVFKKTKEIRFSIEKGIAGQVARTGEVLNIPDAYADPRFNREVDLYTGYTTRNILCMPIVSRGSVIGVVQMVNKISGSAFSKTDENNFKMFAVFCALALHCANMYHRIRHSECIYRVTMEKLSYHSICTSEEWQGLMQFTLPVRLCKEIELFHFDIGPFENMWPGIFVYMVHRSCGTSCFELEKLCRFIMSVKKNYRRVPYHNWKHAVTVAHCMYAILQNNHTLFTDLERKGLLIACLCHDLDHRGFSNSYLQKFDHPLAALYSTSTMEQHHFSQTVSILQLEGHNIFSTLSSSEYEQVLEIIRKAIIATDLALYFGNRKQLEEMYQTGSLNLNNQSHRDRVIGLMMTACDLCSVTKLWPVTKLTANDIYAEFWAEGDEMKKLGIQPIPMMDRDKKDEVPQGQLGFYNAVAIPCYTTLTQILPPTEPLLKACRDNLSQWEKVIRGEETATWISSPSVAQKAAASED

[8] = molecular target: PDE 11A1 (Homo sapiens, UniProt Q9HCR9); details: Gibson et al., Eur J Pharmacol 2006; cited from earlier work
Sequence of PDE 11A1 (Q9HCR9 445-933): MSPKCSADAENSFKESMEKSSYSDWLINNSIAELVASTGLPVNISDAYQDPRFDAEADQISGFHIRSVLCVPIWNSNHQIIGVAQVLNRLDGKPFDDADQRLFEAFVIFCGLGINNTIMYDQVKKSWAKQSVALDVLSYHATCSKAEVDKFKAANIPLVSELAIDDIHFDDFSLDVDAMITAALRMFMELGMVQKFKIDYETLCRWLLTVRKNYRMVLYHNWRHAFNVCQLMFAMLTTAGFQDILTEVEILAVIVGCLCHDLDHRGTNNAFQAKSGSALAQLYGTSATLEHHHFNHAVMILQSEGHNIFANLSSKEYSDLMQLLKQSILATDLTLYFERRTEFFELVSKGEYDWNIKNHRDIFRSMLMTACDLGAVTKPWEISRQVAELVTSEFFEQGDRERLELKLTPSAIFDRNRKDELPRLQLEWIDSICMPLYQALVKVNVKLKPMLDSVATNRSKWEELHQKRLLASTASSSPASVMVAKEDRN

[9] = molecular target: toll-like receptor-4 (TLR4) (Homo sapiens, UniProt O00206); details: Yang et al., Cell Death and Disease 2016; cited from earlier work
Sequence of toll-like receptor-4 (TLR4) (O00206 24-839, species assumed): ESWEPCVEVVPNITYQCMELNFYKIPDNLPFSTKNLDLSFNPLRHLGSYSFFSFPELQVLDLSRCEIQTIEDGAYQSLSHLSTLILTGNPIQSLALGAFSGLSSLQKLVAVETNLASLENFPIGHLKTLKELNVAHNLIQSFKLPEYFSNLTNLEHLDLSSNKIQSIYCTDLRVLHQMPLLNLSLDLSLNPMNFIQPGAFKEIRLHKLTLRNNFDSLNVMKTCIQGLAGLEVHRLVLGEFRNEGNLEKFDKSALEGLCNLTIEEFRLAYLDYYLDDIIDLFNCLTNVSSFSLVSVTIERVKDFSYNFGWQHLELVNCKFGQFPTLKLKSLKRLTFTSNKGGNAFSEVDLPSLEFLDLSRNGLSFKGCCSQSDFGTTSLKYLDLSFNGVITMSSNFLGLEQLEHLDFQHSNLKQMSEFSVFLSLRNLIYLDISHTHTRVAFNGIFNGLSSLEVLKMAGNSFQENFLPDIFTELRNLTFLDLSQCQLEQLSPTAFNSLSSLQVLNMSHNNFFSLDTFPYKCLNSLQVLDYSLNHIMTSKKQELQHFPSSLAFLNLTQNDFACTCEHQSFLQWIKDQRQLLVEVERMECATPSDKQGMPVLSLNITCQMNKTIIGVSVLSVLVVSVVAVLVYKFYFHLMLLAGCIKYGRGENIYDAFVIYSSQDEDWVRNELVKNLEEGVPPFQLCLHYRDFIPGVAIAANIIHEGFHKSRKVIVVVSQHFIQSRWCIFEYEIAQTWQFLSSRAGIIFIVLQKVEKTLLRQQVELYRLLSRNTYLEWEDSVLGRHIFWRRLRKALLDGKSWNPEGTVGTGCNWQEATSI

[10] = Sanftner et al., Xenobiotica 2009; cited from earlier work
[11] = tested on: leukotriene D4; details: reported; cited from earlier work
[12] = tested on: PAF; details: reported; cited from earlier work

CC(C)C(=O)c1c(C(C)C)nn2ccccc12 [Ibudilast, 2-methyl-1-(2-(1-methylethyl)pyrazolo (1,5-a)pyridin-3-yl) 1-propanone]
Dose dependence of TNFα reduction ([1]; "Omicron" spike protein (1.0 μg/ml) with cross-linker, all 3 donors): Dose-dependent curves are observed | Dose dependence of TNFα reduction ([1]; "Omicron" spike protein (5.0 μg/ml) with cross-linker, donor 3): Dose-dependent curves are observed | TNFα levels elevated by "Omicron" spike protein ([1]; "Omicron" spike protein, under certain test conditions, FIGS. 6-8): reduction by ibudilast was evident under certain test conditions | (LPS+spike protein)-evoked levels of TNFα ([1]; all donors, FIGS. 1-3): reduced | TNFα levels ([1]; iMDM, […], ibudilast 1.0, 10, 100 μM): reduce | (LPS+spike protein)-evoked levels of IL-6 ([2]; donors 2 and 3, FIGS. 4-5): reduced | IL-6 levels ([2]; iMDM, "low" concentration (10 ng/mL) of LPS added with the spike proteins (all variants), ibudilast 1.0, 10, 100 μM): reduce | plasma level of MIF [3]: lowers plasma level of MIF | HPP tautomerase activity of MIF [4]: allosteric inhibitor | PDE 3A inhibition [5]: selective inhibitor | PDE 4 inhibition [6]: selective inhibitor | PDE 10A1 inhibition [7]: selective inhibitor | PDE 11A1 inhibition [8]: selective inhibitor | TLR4 antagonistic activity [9]: antagonistic activity | CNS penetration [10]: good CNS penetration | leukotriene D4 antagonistic activity [11]: antagonistic activities | PAF antagonistic activity [12]: antagonistic activities
